Tests used:
B. cereus ATCC 11778 = assay: MIC, NCCLS broth microdilution, B. cereus; assay type: cell-based, Bacillus cereus
Description: (§1) It vitro biological activity data were collected for a variety of microorganisms, including Bacillus cereus (ATCC 11778), Staphylococcus aureus (ATCC 33591; ATCC 27660, a methicillin resistant strain (MRSA); ATCC 13709, a methicillin sensitive strain (MSSA)), Enterococcus faecalis (ATCC 29212), and Streptococcus pneumoniae (ATCC 49619). Additionally, antifungal activity data were collected for Candida albicans (ATCC 38247).
(§2) Compounds according to this invention were screened for their in vitro activities against selected species of bacteria and fungi. The minimal inhibition concentration (MIC) of these compounds was determined using the National Committee for Clinical Laboratory Standards (NCCLS) broth microdilution assay in microtiter plates, as set forth in: (1) the guidelines of the National Committee for Clinical Laboratory Standards (NCCLS) Document M7-A4 (NCCLS, 1997); (2) the guidelines of the National Committee for Clinical Laboratory Standards (NCCLS) Document M11-A4 (NCCLS, 1997); and (3) the guidelines and reference method of the National Committee for Clinical Laboratory Standards (NCCLS) Document M27-T (NCCLS, 1995). For antifungal assays, the method recommended in Murray, P R., 1995 Manual of Clinical Microbiology (ASM Press, Washington, D.C.), was employed.

S. aureus ATCC 13709 = assay: MIC, NCCLS broth microdilution, S. aureus MSSA; assay type: cell-based, Staphylococcus aureus; conditions: S. aureus ATCC 13709, methicillin sensitive strain (MSSA)
Description: as §1, §2

C. albicans ATCC 38247 = assay: MIC, antifungal assay, C. albicans; assay type: cell-based, Candida albicans
Description: as §1, §2

E. faecalis ATCC 29212 = assay: MIC, NCCLS broth microdilution, E. faecalis; assay type: cell-based, Enterococcus faecalis
Description: as §1, §2

S. pneumoniae ATCC 49619 = assay: MIC, NCCLS broth microdilution, S. pneumoniae; assay type: cell-based, Streptococcus pneumoniae
Description: as §1, §2

S. aureus ATCC 27660 = assay: MIC, NCCLS broth microdilution, S. aureus MRSA; assay type: cell-based, Staphylococcus aureus; conditions: S. aureus ATCC 27660, methicillin resistant strain (MRSA)
Description: as §1, §2

S. aureus ATCC 33591 = assay: MIC, NCCLS broth microdilution, S. aureus ATCC 33591; assay type: cell-based, Staphylococcus aureus
Description: as §1, §2

SMILES	Minimum Inhibitory Concentration (MIC), organism A (B. cereus ATCC 11778)	Minimum Inhibitory Concentration (MIC), organism D (S. aureus ATCC 13709)	Minimum Inhibitory Concentration (MIC), organism B (C. albicans ATCC 38247)	Minimum Inhibitory Concentration (MIC), organism C (E. faecalis ATCC 29212)	Minimum Inhibitory Concentration (MIC), organism G (S. pneumoniae ATCC 49619)	Minimum Inhibitory Concentration (MIC), organism E (S. aureus ATCC 27660)	Minimum Inhibitory Concentration (MIC), organism F (S. aureus ATCC 33591)
CC1CCN(CCCn2cc(NC(=O)c3sccc3Cl)cc2C(=O)Nc2cc(-c3nc4ccccc4[nH]3)n(C)c2)CC1 [Compound A-52]	+++ (MIC ≦ 4 μg/mL)	+++ (MIC ≦ 4 μg/mL)	+ (12 ≦ MIC ≦ 32 μg/mL)	+++ (MIC ≦ 4 μg/mL)	+++ (MIC ≦ 4 μg/mL)	+++ (MIC ≦ 4 μg/mL)	+++ (MIC ≦ 4 μg/mL)
Cn1cc(NC(=O)c2cc(NC(=O)c3sccc3Cl)cn2CCCN2CCC(O)CC2)cc1-c1nc2ccccc2[nH]1 [Compound A-53]	+++ (MIC ≦ 4 μg/mL)	+++ (MIC ≦ 4 μg/mL)	+ (12 ≦ MIC ≦ 32 μg/mL)	++ (4 < MIC < 12 μg/mL)	+++ (MIC ≦ 4 μg/mL)	+++ (MIC ≦ 4 μg/mL)	+++ (MIC ≦ 4 μg/mL)
Cn1cc(NC(=O)c2cc(NC(=O)c3sccc3Cl)cn2CCCN(CCO)CCO)cc1-c1nc2ccccc2[nH]1 [Compound A-55]	+ (12 ≦ MIC ≦ 32 μg/mL)	+ (12 ≦ MIC ≦ 32 μg/mL)	>32 µg/mL	+ (12 ≦ MIC ≦ 32 μg/mL)	++ (4 < MIC < 12 μg/mL)	++ (4 < MIC < 12 μg/mL)	++ (4 < MIC < 12 μg/mL)
Cn1cc(NC(=O)c2cc(NC(=O)c3sccc3Cl)cn2CCC[n+]2ccccc2)cc1-c1nc2ccccc2[nH]1 [Compound A-56]	>32 µg/mL	+ (12 ≦ MIC ≦ 32 μg/mL)	>32 µg/mL	>32 µg/mL	>32 µg/mL	+ (12 ≦ MIC ≦ 32 μg/mL)	+ (12 ≦ MIC ≦ 32 μg/mL)
Cn1cc(NC(=O)c2cc(NC(=O)c3sccc3Cl)cn2CCC[n+]2ccccc2)cc1-c1nc2ncccc2[nH]1 [Compound A-62]	>32 µg/mL	>32 µg/mL	>32 µg/mL	>32 µg/mL	+ (12 ≦ MIC ≦ 32 μg/mL)	+ (12 ≦ MIC ≦ 32 μg/mL)	+ (12 ≦ MIC ≦ 32 μg/mL)
CN(C)CCCn1cc(NC(=O)c2sccc2Cl)cc1C(=O)Nc1cc(-c2nc3ncncc3[nH]2)n(C)c1 [Compound A-63]	>32 µg/mL	+ (12 ≦ MIC ≦ 32 μg/mL)	>32 µg/mL	+ (12 ≦ MIC ≦ 32 μg/mL)	+++ (MIC ≦ 4 μg/mL)	+ (12 ≦ MIC ≦ 32 μg/mL)	+ (12 ≦ MIC ≦ 32 μg/mL)

From US7265129B2, “Anti-infective biaryl compounds” (priority 2002, dated 2007)
